Measurements reported in patent US20220370515A1, “MEDICAL COMPOSITIONS AND THEIR USE IN TREATING PANCREATIC CANCER” (BIOMILLENIA SAS, priority 2019, published 2022).
Entries after “also recorded” stand apart in the source; their conditions may differ.

Legend:
Assay type in all cases: cell-based
[1] = test system: Malassezia globosa; assay: Modified disc diffusion assay with living culture (Example 2); conditions: M. globosa lawn; discs soaked with 15 ul exponentially growing Acetobacter culture or ketoconazole 1 mg/mL in DMSO; 5 days incubation
Experimental: (§1) FIG. 1|Inhibition assays of M. restricta and M. globose by growth of Acetobacter fabarum. Discs were soaked with ketoconazole (1 mg/ml in DMSO) or exponentially growing Acetobacter fabarum culture and placed on agar plates containing a soft layer inoculated with a single culture of the different Malassezia species to be tested. In the upper panel, inhibition of Malassezia globosa is shown; in the bottom panel, Malassezia restricta is shown.
(§2) In order to identify strains whose growth inhibits Malassezia, inhibition assays were performed using a modified disc diffusion method. This method is similar to the classical disk diffusion method that consists in depositing discs imbibed with potential inhibitory substances on Petri plates containing a strain of interest, except that the disks were imbibed with a living culture of an Acetobacter strain. After optimal growth of the strain of interest, growth inhibition can be observed around discs on which the growth of inhibitory bacteria has occurred. Ketoconazole (at 1 mg/mL in DMSO) was used as a positive control for Malassezia growth inhibition. The effect of growth of Acetobacter was tested on Malassezia restricta and Malassezia globosa. All Malassezia strains were streaked from −80° C. stock on Modified Leeming and Notman (MLN) agar plates and incubated 10 days at 30° C. […]

[2] = test system: Malassezia restricta; assay: as above; conditions: M. restricta lawn; discs soaked with 15 ul exponentially growing Acetobacter culture or ketoconazole 1 mg/mL in DMSO; 5 days incubation
Experimental: as §1, §2

[3] = test system: Malassezia sympodialis; assay: Disc diffusion inhibition assay (Example 1); conditions: M. sympodialis lawn; 6 mm discs soaked with 15 ul supernatant or ketoconazole 1 mg/ml in DMSO; 5 days incubation
Experimental: (§3) FIG. 1|Inhibition assays of the fungicide ketoconazole as positive control for inhibition and Kazachstania unispora supernatant on M. sympodialis, M. furfur, M. restricta and M. globosa. Inhibition assays were performed using the disc diffusion method. Discs were soaked with ketoconazole (1 mg/ml) or K. unispora supernatant and placed on agar plates containing a soft layer inoculated with a single culture of the different Malassezia species to be tested.
(§4) In order to identify strains inhibiting Malassezia growth, inhibition assays were performed using the disc diffusion method. This method consists in disposing discs imbibed with potential inhibitory substances on Petri plates containing a strain of interest. After optimal growth of the strain of interest, growth inhibition can be observed around discs soaked with substances having an inhibitory effect. Potential inhibitory substances tested in this experiment are supernatants obtained after individually culturing a collection of fungal and bacterial strains. After an incubation of 10 days in their optimal broth, each culture was centrifuged and the supernatant was filtered and further stored at −20° C. Ketoconazole, a fungicide, was used as a positive control for Malassezia growth inhibition. It was diluted in dimethyl sulfoxide at 1 mg/ml. The collection of supernantants was tested on the following species from the genus Malassezia: Malassezia restricta, Malassezia globosa, Malassezia furfur and Malassezia sympodialis. All strains were streaked from −80° C. stock on Modified Leeming and Notman (MLN) agar plates and incubated 10 days at 30° C. A 5 ml liquid culture of each species was made in MLN broth and incubated at 30° C. for 2 days for M. furfur and M. sympodialis and 5 days for M. restricta and M. globosa. To allow a lawn growth of the different Malassezia strains tested, Petri plates were prepared as follows: a bottom layer of 50 ml Modified Sabouraud Dextrose (MSD) agar was poured in Petri plates. The soft agar, constituting the top layer, was a mix of 12.5 ml MSD agar, 10.5 ml MLN broth and 2 ml of liquid culture. Plates were allowed to dry for one hour, then, 6 mm-diameter Whatman™ discs were soaked with 15 ul of each thawed supernatants and ketoconazole and placed on the soft agar plate containing the solidified Malassezia monoculture layer. After an incubation of 5 days, inhibition area could be easily observed around discs. […] The strain from which the inhibitory supernatant has been produced was further sequenced using the Sanger technology. The internal transcribed spacer (ITS) of this strain was taxonomically assigned to the yeast Kazachstania unispora (BLASTn, 99% identity, 99% query cover, e-value 0.00).

[4] = test system: Malassezia furfur; assay: Disc diffusion inhibition assay (Example 1); conditions: M. furfur lawn; 6 mm discs soaked with 15 ul supernatant or ketoconazole 1 mg/ml in DMSO; 5 days incubation
Experimental: as §3, §4

[5] = test system: Malassezia globosa; assay: Disc diffusion inhibition assay (Example 1); conditions: M. globosa lawn; 6 mm discs soaked with 15 ul supernatant or ketoconazole 1 mg/ml in DMSO; 5 days incubation
Experimental: as §3, §4

[6] = test system: Malassezia restricta; assay: Disc diffusion inhibition assay (Example 1); conditions: M. restricta lawn; 6 mm discs soaked with 15 ul supernatant or ketoconazole 1 mg/ml in DMSO; 5 days incubation
Experimental: as §3, §4

CC(=O)N1CCN(c2ccc(OCC3COC(Cn4ccnc4)(c4ccc(Cl)cc4Cl)O3)cc2)CC1 (stereo not drawn) [ketoconazole]
growth inhibition (inhibition halo around disc) [1]: inhibits growth of both Malassezia species tested; also recorded: inhibited both Malassezia restricta and Malassezia globose
growth inhibition (inhibition halo around disc) [2]: inhibits growth of both Malassezia species tested; also recorded: inhibited both Malassezia restricta and Malassezia globose
growth inhibition (inhibition halo around disc) [3]: inhibits growth of all 4 Malassezia species tested; also recorded: inhibited all 4 Malassezia species tested
growth inhibition (inhibition halo around disc) [4]: inhibits growth of all 4 Malassezia species tested; also recorded: inhibited all 4 Malassezia species tested
growth inhibition (inhibition halo around disc) [5]: inhibits growth of all 4 Malassezia species tested; also recorded: inhibited all 4 Malassezia species tested
growth inhibition (inhibition halo around disc) [6]: inhibits growth of all 4 Malassezia species tested; also recorded: inhibited all 4 Malassezia species tested
